Laboratory results from publication PMC5267425, “Identification of small molecule modulators of HIV-1 Tat and Rev protein accumulation” (Retrovirology, 2017).

System: cellular gene expression in HeLa rtTA HIV∆Mls cells

With `Cc1cc(NCc2cccnc2)n2ncc(-c3ccc(Cl)cc3)c2n1` [Compound 791, 3-(4-chlorophenyl)-5-methyl-N-(3-pyridinylmethyl)pyrazolo[1,5-a]pyrimidin-7-amine] the “DCAF6 expression fold change” value was 0.581, the “DCAF17 Mean fold change” value was 1.433 and the “DCI expression fold change” value was 1.321. The “DCLRE1A expression fold change” value was 1.408, the “DCXR expression fold change” value was 1.050 and the “DDB2 expression fold change” value was 1.399. For the same molecule, the “DDR1 expression fold change” value was 0.690, the “DDX10 expression fold change” value was 1.177 and the “DDX31 Mean fold change” value was 1.434. The “DDX50 expression fold change” value was 1.253, the “DENND4B expression fold change” value was 1.243 and the “DET1 expression fold change” value was 1.366. The “DGCR2 expression fold change” value was 0.881, the “DGKQ expression fold change” value was 1.343 and the “DHX35 expression fold change” value was 1.203. For the same molecule, the “DLG4 expression fold change” value was 1.263, the “DMAP1 expression fold change” value was 0.891 and the “DNAH14 Mean fold change” value was 1.678. For the same molecule, the “DNAH17 Mean fold change” value was 1.839, the “DNAJA3 Mean fold change” value was 1.796 and the “DNAJB14 expression fold change” value was 1.264. The “DNASE2 expression fold change” value was 1.378, the “DNMT3L expression fold change” value was 0.498 and the “DOCK1 expression fold change” value was 0.758. The “DOCK8 expression fold change” value was 0.595, the “DPH5 Mean fold change” value was 1.479 and the “DPM2 expression fold change” value was 1.136. For the same molecule, the “DPYSL2 Mean fold change” value was 1.729, the “DSE expression fold change” value was 0.858 and the “DUS4L Mean fold change” value was 1.822. The “DUSP1 expression fold change” value was 0.730, the “DUSP8 expression fold change” value was 0.576 and the “DYM expression fold change” value was 1.260. The “DYNC1I2 expression fold change” value was 0.857, the “DYNLT1 expression fold change” value was 1.171 and the “DYRK2 expression fold change” value was 1.206. The “EARS2 expression fold change” value was 1.134, the “ECT2 expression fold change” value was 0.716 and the “EDA2R Mean fold change” value was 1.924. For the same molecule, the “EDEM1 expression fold change” value was 1.273, the “EFCAB2 expression fold change” value was 1.159 and the “EIF1 Mean fold change” value was 1.516. For the same molecule, the “EIF2S2 Mean fold change” value was 1.734, the “EIF2S3 expression fold change” value was 1.243 and the “EIF4EBP1 Mean fold change” value was 2.239. The “ELMO2 expression fold change” value was 1.211, the “ELP3 expression fold change” value was 1.135 and the “EMP2 expression fold change” value was 0.740. For the same molecule, the “ENOPH1 Mean fold change” value was 1.427, the “EPB41L2 expression fold change” value was 0.862 and the “EPB41L4A expression fold change” value was 0.788. The “EPB41 Mean fold change” value was 1.417, the “EPM2AIP1 expression fold change” value was 1.093 and the “EPRS expression fold change” value was 1.271. The “ERCC2 expression fold change” value was 0.790, the “ERGIC1 expression fold change” value was 1.185 and the “ERICH1 expression fold change” value was 0.941. For the same molecule, the “ERMAP Mean fold change” value was 1.499, the “ERRFI1 Mean fold change” value was 1.452 and the “ESAM expression fold change” value was 0.673. For the same molecule, the “ESCO1 expression fold change” value was 1.256, the “ESF1 expression fold change” value was 1.072 and the “ESRRA expression fold change” value was 1.275. For the same molecule, the “ESYT2 expression fold change” value was 0.824, the “ETV4 Mean fold change” value was 4.291 and the “ETV6 expression fold change” value was 1.253. For the same molecule, the “F2R expression fold change” value was 0.551, the “FAIM3 expression fold change” value was 1.351 and the “FAM13B expression fold change” value was 0.771. For the same molecule, the “FAM27E2 Mean fold change” value was 2.360, the “FAM83D expression fold change” value was 0.622 and the “FAM83G expression fold change” value was 1.328. For the same molecule, the “FAM86A Mean fold change” value was 1.567, the “FAM86B1 Mean fold change” value was 2.493 and the “FAM86B2 Mean fold change” value was 2.843. For the same molecule, the “FAM86C Mean fold change” value was 1.599, the “FAM102A expression fold change” value was 1.402 and the “FAM107B expression fold change” value was 1.234. The “FAM114A1 expression fold change” value was 0.853, the “FAM119B expression fold change” value was 1.218 and the “FAM127A expression fold change” value was 0.756. The “FAM133B expression fold change” value was 1.056, the “FAM176B expression fold change” value was 1.310 and the “FAM179B expression fold change” value was 1.253. The “FAM192A expression fold change” value was 1.096, the “FAM195B expression fold change” value was 0.859 and the “FAM199X expression fold change” value was 1.145. The “FAR1 expression fold change” value was 1.245, the “FARP1 expression fold change” value was 0.824 and the “FASTKD2 expression fold change” value was 1.173. For the same molecule, the “FBXL2 expression fold change” value was 0.756, the “FBXO22 expression fold change” value was 1.399 and the “FBXO28 expression fold change” value was 1.101. For the same molecule, the “FBXO45 Mean fold change” value was 1.434, the “FBXW4 expression fold change” value was 1.381 and the “FBXW11 expression fold change” value was 1.080. The “FDFT1 expression fold change” value was 0.649, the “FECH expression fold change” value was 0.957 and the “FEM1C expression fold change” value was 1.387. For the same molecule, the “FEZ2 expression fold change” value was 1.355, the “FGFR3 expression fold change” value was 0.612 and the “FLCN expression fold change” value was 1.383. For the same molecule, the “FLII expression fold change” value was 0.919, the “FLYWCH1 expression fold change” value was 1.367 and the “FOSL2 expression fold change” value was 1.375. For the same molecule, the “FOXF1 expression fold change” value was 1.318, the “FOXJ2 expression fold change” value was 1.277 and the “FOXJ3 expression fold change” value was 1.187. For the same molecule, the “FOXN2 expression fold change” value was 1.082, the “FRAT1 expression fold change” value was 0.900 and the “FSTL1 expression fold change” value was 0.717. The “FUBP1 expression fold change” value was 0.781, the “FXYD5 expression fold change” value was 1.215 and the “FZR1 expression fold change” value was 0.784. For the same molecule, the “GABARAPL2 expression fold change” value was 0.887, the “GADD45A Mean fold change” value was 2.491 and the “GALNT2 expression fold change” value was 0.621. The “GATA5 expression fold change” value was 1.360, the “GATSL1 expression fold change” value was 0.637 and the “GBA2 expression fold change” value was 1.203. For the same molecule, the “GCC1 Mean fold change” value was 1.971, the “GDF15 Mean fold change” value was 7.775 and the “GGA3 expression fold change” value was 1.172. For the same molecule, the “GJD3 expression fold change” value was 1.295, the “GLCCI1 expression fold change” value was 0.781 and the “GLI2 expression fold change” value was 0.589. The “GNA13 expression fold change” value was 1.223, the “GNG10 expression fold change” value was 0.817 and the “GNL1 expression fold change” value was 1.145. The “GOLGA5 expression fold change” value was 1.153, the “GOLGA9P Mean fold change” value was 1.884 and the “GORAB expression fold change” value was 1.233. The “GORASP1 expression fold change” value was 0.859, the “GOSR1 expression fold change” value was 1.352 and the “GPC5 expression fold change” value was 1.250. The “GPCPD1 Mean fold change” value was 2.287, the “GPD1L expression fold change” value was 1.252 and the “GPR176 expression fold change” value was 0.771. For the same molecule, the “GPT2 Mean fold change” value was 2.731, the “GRAMD1C expression fold change” value was 1.186 and the “GRB10 Mean fold change” value was 1.714. For the same molecule, the “GRINL1A Mean fold change” value was 1.542, the “GRPEL2 Mean fold change” value was 1.903 and the “GTF2H3 expression fold change” value was 1.322. The “GTF3C1 expression fold change” value was 0.813, the “H3F3A expression fold change” value was 0.746 and the “HACL1 expression fold change” value was 0.803. For the same molecule, the “HADHA Mean fold change” value was 1.441, the “HADHB Mean fold change” value was 1.600 and the “HAUS3 expression fold change” value was 1.330. For the same molecule, the “HAUS4 expression fold change” value was 1.250, the “HAUS6 Mean fold change” value was 1.910 and the “HAX1 Mean fold change” value was 1.624. The “HDAC1 expression fold change” value was 0.825, the “HDHD2 expression fold change” value was 1.223 and the “HEBP1 expression fold change” value was 1.199. The “HECTD1 expression fold change” value was 1.231, the “HEG1 expression fold change” value was 0.638 and the “HIF1A expression fold change” value was 1.219. For the same molecule, the “HINT3 expression fold change” value was 1.199, the “HIPK1 expression fold change” value was 1.092 and the “HIST1H3B expression fold change” value was 0.670. For the same molecule, the “HJURP expression fold change” value was 0.874, the “HMGB3 expression fold change” value was 0.753 and the “HMGN3 expression fold change” value was 0.687. The “HNRNPH2 expression fold change” value was 0.704, the “HPS3 expression fold change” value was 1.235 and the “HRSP12 expression fold change” value was 1.297. The “HSD17B1 expression fold change” value was 1.238, the “HSPA9 Mean fold change” value was 2.175 and the “HSPB6 Mean fold change” value was 2.845. The “HSPB8 expression fold change” value was 0.812, the “IBTK expression fold change” value was 1.153 and the “ICAM1 Mean fold change” value was 1.829. The “ICK expression fold change” value was 0.776, the “ID3 expression fold change” value was 0.580 and the “IDH2 expression fold change” value was 0.637. For the same molecule, the “IDI1 expression fold change” value was 0.495, the “IFNGR1 expression fold change” value was 1.224 and the “IFRD1 Mean fold change” value was 2.095. The “IKBIP expression fold change” value was 0.658, the “IMMT expression fold change” value was 1.075 and the “IMPA2 Mean fold change” value was 1.561. The “INCENP expression fold change” value was 0.617, the “INO80C expression fold change” value was 0.723 and the “INPP1 expression fold change” value was 1.347. For the same molecule, the “IPO13 expression fold change” value was 1.247, the “IQCB1 expression fold change” value was 1.350 and the “ISCU Mean fold change” value was 1.477. The “ITGA5 expression fold change” value was 1.145, the “ITPKC expression fold change” value was 1.186 and the “IVNS1ABP expression fold change” value was 1.200. The “JTB expression fold change” value was 1.203, the “JUB expression fold change” value was 0.585 and the “KANK2 expression fold change” value was 0.798. For the same molecule, the “KCNJ2 Mean fold change” value was 1.873, the “KCTD1 expression fold change” value was 1.252 and the “KCTD13 expression fold change” value was 1.373. For the same molecule, the “KCTD15 Mean fold change” value was 1.965, the “KCTD20 expression fold change” value was 1.124 and the “KHDRBS1 expression fold change” value was 0.750. The “KHSRP expression fold change” value was 0.864, the “KIAA0232 expression fold change” value was 1.232 and the “KIAA0562 expression fold change” value was 1.119. For the same molecule, the “KIAA0649 expression fold change” value was 1.279, the “KIAA0753 expression fold change” value was 1.283 and the “KIAA0895 expression fold change” value was 1.129. For the same molecule, the “KIAA1430 expression fold change” value was 1.140, the “KIAA1826 expression fold change” value was 1.191 and the “KIAA2013 expression fold change” value was 0.927. The “KIF3B expression fold change” value was 0.839, the “KIF5C expression fold change” value was 0.782 and the “KIF11 expression fold change” value was 0.660. The “KIF18B expression fold change” value was 0.771, the “KIF20B expression fold change” value was 0.622 and the “KIFC1 expression fold change” value was 0.753. For the same molecule, the “KITLG expression fold change” value was 0.707, the “KLF9 expression fold change” value was 0.665 and the “KLF11 Mean fold change” value was 1.487. The “KLHDC3 expression fold change” value was 0.728, the “KLHL35 Mean fold change” value was 1.651 and the “KPNA2 expression fold change” value was 0.620. For the same molecule, the “KRR1 expression fold change” value was 1.251, the “LACE1 Mean fold change” value was 1.553 and the “LAPTM4B expression fold change” value was 0.781. For the same molecule, the “LARP6 Mean fold change” value was 3.094, the “LARS expression fold change” value was 1.394 and the “LASS5 expression fold change” value was 0.895. The “LGALS9 Mean fold change” value was 1.949, the “LGTN expression fold change” value was 1.255 and the “LHPP Mean fold change” value was 1.532. The “LIG3 expression fold change” value was 1.068, the “LIN7B expression fold change” value was 1.185 and the “LMO7 expression fold change” value was 0.663. The “LONP1 Mean fold change” value was 2.312, the “LRP5L expression fold change” value was 1.303 and the “LRPPRC expression fold change” value was 1.312. The “LRRC8D Mean fold change” value was 1.472, the “LRRC16A expression fold change” value was 0.608 and the “LRRC37A3 Mean fold change” value was 1.746. The “LRRC37B Mean fold change” value was 1.443, the “LRSAM1 expression fold change” value was 1.153 and the “LYRM2 expression fold change” value was 1.176. The “LYSMD1 expression fold change” value was 1.216, the “LZTR1 expression fold change” value was 0.877 and the “MAGT1 expression fold change” value was 0.903. For the same molecule, the “MAK16 Mean fold change” value was 1.459, the “MAML2 expression fold change” value was 0.717 and the “MANF expression fold change” value was 0.731. For the same molecule, the “MAP1B Mean fold change” value was 3.550, the “MAP3K12 expression fold change” value was 1.348 and the “MAP3K14 expression fold change” value was 0.532. For the same molecule, the “MAP4K4 expression fold change” value was 0.822.
